From the Kinase Knowledgebase extract (Sharma et al. 2016)

Target: EGFR (human) (UniProt P00533)
Sequence (P00533 whole entry, looked up): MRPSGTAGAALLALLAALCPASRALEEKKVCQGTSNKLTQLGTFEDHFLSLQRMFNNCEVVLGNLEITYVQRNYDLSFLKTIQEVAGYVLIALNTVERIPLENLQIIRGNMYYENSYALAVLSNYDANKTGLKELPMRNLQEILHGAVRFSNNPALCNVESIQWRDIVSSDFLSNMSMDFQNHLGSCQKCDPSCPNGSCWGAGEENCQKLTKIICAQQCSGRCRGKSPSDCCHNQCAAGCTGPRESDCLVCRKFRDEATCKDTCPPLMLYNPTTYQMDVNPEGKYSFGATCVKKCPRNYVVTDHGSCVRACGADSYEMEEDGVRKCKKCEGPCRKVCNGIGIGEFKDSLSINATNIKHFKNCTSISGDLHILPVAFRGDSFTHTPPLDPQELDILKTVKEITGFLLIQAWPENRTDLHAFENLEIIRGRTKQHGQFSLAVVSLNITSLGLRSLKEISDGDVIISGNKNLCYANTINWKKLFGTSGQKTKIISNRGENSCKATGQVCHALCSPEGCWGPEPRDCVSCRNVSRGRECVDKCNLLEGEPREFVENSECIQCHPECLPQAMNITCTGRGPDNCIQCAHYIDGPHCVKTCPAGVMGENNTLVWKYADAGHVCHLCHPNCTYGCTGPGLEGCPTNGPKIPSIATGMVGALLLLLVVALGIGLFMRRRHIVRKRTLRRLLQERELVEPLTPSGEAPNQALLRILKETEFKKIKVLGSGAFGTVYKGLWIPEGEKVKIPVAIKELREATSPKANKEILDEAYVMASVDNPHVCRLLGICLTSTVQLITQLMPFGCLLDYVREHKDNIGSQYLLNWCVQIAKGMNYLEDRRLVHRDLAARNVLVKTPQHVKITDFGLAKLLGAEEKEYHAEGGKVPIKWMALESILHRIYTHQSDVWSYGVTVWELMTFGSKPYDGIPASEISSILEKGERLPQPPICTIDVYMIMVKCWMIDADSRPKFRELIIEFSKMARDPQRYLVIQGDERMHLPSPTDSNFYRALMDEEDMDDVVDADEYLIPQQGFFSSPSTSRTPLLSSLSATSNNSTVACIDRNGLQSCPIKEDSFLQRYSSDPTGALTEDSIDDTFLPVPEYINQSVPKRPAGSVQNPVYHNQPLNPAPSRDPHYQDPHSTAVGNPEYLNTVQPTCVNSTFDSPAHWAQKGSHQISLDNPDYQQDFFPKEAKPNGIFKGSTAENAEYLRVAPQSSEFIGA

Structure (SMILES): CCN(CC)CCNC(=O)c1c[nH]c(/C=C2\C(=O)Nc3cccc(-c4ccc(Br)cc4)c32)c1C
- IC50: > 20 µM

Structure (SMILES): COc1ccc(-c2cccc3c2/C(=C/c2[nH]c(C)c(C(=O)N4C[C@@H](C)N[C@@H](C)C4)c2C)C(=O)N3)cc1
- IC50: > 20 µM

Structure (SMILES): Cc1[nH]c(/C=C2\C(=O)Nc3cccc(-c4ccccc4F)c32)c(C)c1C(=O)N1CCN(C)CC1
- IC50: > 20 µM

Structure (SMILES): Cc1cc(C(=O)N2C[C@@H](C)N[C@@H](C)C2)c(/C=C2\C(=O)Nc3cccc(-c4ccc(Cl)cc4)c32)[nH]1
- IC50: > 20 µM

Structure (SMILES): CCN(CC)CCNC(=O)c1c(C)[nH]c(/C=C2\C(=O)Nc3cccc(-c4ccc(OC(F)(F)F)cc4)c32)c1C
- IC50: > 20 µM

Structure (SMILES): Cc1[nH]c(/C=C2\C(=O)Nc3cccc(-c4ccc(Br)cc4)c32)c(C)c1C(=O)N1CCN(C)CC1
- IC50: > 20 µM

Structure (SMILES): Cc1[nH]c(/C=C2\C(=O)Nc3cccc(-c4ccc(Cl)cc4)c32)c(C)c1C(=O)N1CCN(C)CC1
- IC50: > 20 µM

Structure (SMILES): Cc1cc(C(=O)NCCn2ccnn2)c(/C=C2\C(=O)Nc3cccc(-c4ccccc4F)c32)[nH]1
- IC50: > 20 µM

Structure (SMILES): Cc1cc(C(=O)N2C[C@@H](C)N[C@@H](C)C2)c(/C=C2\C(=O)Nc3cccc(-c4cccc(Cl)c4)c32)[nH]1
- IC50: > 20 µM

Structure (SMILES): Cc1[nH]c(/C=C2\C(=O)Nc3cccc(-c4cccc(F)c4)c32)c(C)c1C(=O)NCCn1ccnn1
- IC50: > 20 µM

Structure (SMILES): Cc1cc(C(=O)NCCN2CCCC2)c(/C=C2\C(=O)Nc3cccc(-c4ccc(F)c(Cl)c4)c32)[nH]1
- IC50: > 20 µM

Structure (SMILES): Cc1cc(C(=O)NCCn2ccnn2)c(/C=C2\C(=O)Nc3cccc(-c4cccc(Cl)c4)c32)[nH]1
- IC50: > 20 µM

Structure (SMILES): COc1cccc(-c2cccc3c2/C(=C/c2[nH]c(C)c(C(=O)NCCN(C(C)C)C(C)C)c2C)C(=O)N3)c1
- IC50: > 20 µM

Structure (SMILES): Cc1[nH]c(/C=C2\C(=O)Nc3cccc(-c4ccc(Br)cc4)c32)c(C)c1C(=O)N1C[C@@H](C)N[C@@H](C)C1
- IC50: > 20 µM

Structure (SMILES): COc1ccc(-c2cccc3c2/C(=C/c2[nH]c(C)cc2C(=O)NCCN2CCCC2)C(=O)N3)cc1
- IC50: > 20 µM

Structure (SMILES): Cc1[nH]c(/C=C2\C(=O)Nc3cccc(-c4ccc(F)cc4)c32)c(C)c1C(=O)N1CCN(C)CC1
- IC50: > 20 µM

Structure (SMILES): COc1cccc(-c2cccc3c2/C(=C/c2[nH]c(C)c(C(=O)NCCn4ccnn4)c2C)C(=O)N3)c1
- IC50: > 20 µM

Structure (SMILES): Cc1cc(C(=O)N2CC[C@H](N(C)C)C2)c(/C=C2\C(=O)Nc3cccc(-c4cccc(Cl)c4)c32)[nH]1
- IC50: > 20 µM

Structure (SMILES): Cc1cc(C(=O)N2CC[C@H](N(C)C)C2)c(/C=C2\C(=O)Nc3cccc(-c4ccc(F)cc4)c32)[nH]1
- IC50: > 20 µM

Structure (SMILES): CCN(CC)CCNC(=O)c1c(C)[nH]c(/C=C2\C(=O)Nc3cccc(-c4ccccc4)c32)c1C
- IC50: > 20 µM

Structure (SMILES): Cc1cc(C(=O)N2CC[C@@H](N(C)C)C2)c(/C=C2\C(=O)Nc3cccc(-c4ccc(Cl)cc4)c32)[nH]1
- IC50: > 20 µM

Structure (SMILES): CCN(CC)CCNC(=O)c1c(C)[nH]c(/C=C2\C(=O)Nc3cccc(-c4cccc(OC)c4)c32)c1C
- IC50: > 20 µM

Structure (SMILES): Cc1[nH]c(/C=C2\C(=O)Nc3cccc(-c4cccc(C(F)(F)F)c4)c32)c(C)c1C(=O)N1CCN(C)CC1
- IC50: > 20 µM

Structure (SMILES): Cc1cc(C(=O)NCCN2CCCC2)c(/C=C2\C(=O)Nc3cccc(-c4ccc(Br)cc4)c32)[nH]1
- IC50: > 20 µM
